Test results reported in PubChem BioAssay AID2060896 (Molecular Pharmacology Branch, DTP, NCI, 2025).

Tested on: 941728-121-R-J1-PDC complex spheroid viability
Experiment: Anticancer human tumor 941728-121-R-J1-PDC patient-derived lung adenocarcinoma cell line growth inhibition [RAS]
Conditions: for IC50: curve of first compound; for viability, T/C: stronger effect = lower value
Text: RAS pathway inhibitors in Combinations in Complex Spheroids
A high-throughput screen of multi-cell type tumor spheroids was designed to identify active combinations of RAS pathway inhibitors and targeted small molecules. Complex spheroids include a stromal component modeled by human endothelial cells (HUVEC) and fibroblasts modeled by human mesenchymal stem cells (MSCs). The concentration ranges selected for each drug and investigational agent were based upon clinically achievable concentrations if the clinical Cmax of the agent was known.
Compounds. The drugs and investigational agents: abemaciclib (NSC768073), cobimetinib (NSC768068), divarasib (GDC6063, NSC841802), docetaxel (NSC628503), GDC-1971 (RLY-1971, NSC841576), gemcitabine (NSC613327), inavolisib (NSC800729), ipatasertib (NSC767898), KB-0742 (NSC834161), MRTX-1133 (NSC836407), osimertinib (NSC779217), RMC-4630 (NSC839698), RMC-6236 (NSC851965), RMC-6291 (NSC852671), Ro-3306 (NSC812927), sapanisertib (NSC764658), SN-38 (NSC673596), staurosporine (NSC755774), SY5609 (NSC837396), and tovorafenib (DAY101, NSC766906), were obtained from the National Cancer Institute (NCI) Developmental Therapeutics Program Chemical Repository. The FDA-approved anticancer drug set is available from the NCI Developmental Therapeutics Program. […] The stock solutions were prepared in dimethyl sulfoxide (DMSO, Sigma-Aldrich, St. Louis, MO, cat. D2650) at 800-fold the tested concentration and stored at -70 degrees C prior to their use. All drugs and investigational agents were tested over a range starting from a high concentration at or near the clinical Cmax and decreasing in half-log increments. If the clinical Cmax for an agent had not been determined, the highest concentration tested was 10 microM.
Cell Culture. All cells were maintained in an incubator at 37 degrees C and 5% CO2 with 95% humidity. The PDC lines were cultured according to standard operating procedures established by the NCI PDMR. All PDCs were thawed and cultured in Matrigel-coated flasks prepared with a working solution of 1X Ham's F-12 nutrient mix, without supplementation (Invitrogen, Waltham, MA, cat. 11765054), 100 U/mL penicillin-streptomycin (Invitrogen, cat. 15140122), and 2.5% Matrigel (Corning Inc., Corning, NY, cat. 354248) for the first three passages. The 362531-283-R-J2-PDC and 782815-120-R-J1-PDC lines were cultured in 6C/Colon 1B media, which includes advanced DMEM/F-12 (Thermo Fisher Scientific, cat. 12634028), 10 mM HEPES (Thermo Fisher Scientific, cat. 15630080), 1X GlutaMAX supplement (Thermo Fisher Scientific, cat. 35050061), 0.1 mg/mL primocin (InvivoGen, San Diego, CA, cat. ant-pm-2), 10% defined fetal bovine serum, heat inactivated (HyClone Laboratories Inc., Logan, UT, cat. SH30070.03HI), 50% L-WRN conditioned media (ATCC, cat. CRL-3276), 1.25 mM N-Acetyl-L-cysteine (Sigma-Aldrich, cat. A9165), 10 mM nicotinamide (Sigma-Aldrich, cat. N0636), 1X B-27 supplement (Thermo Fisher Scientific, cat. 17504044), 1X N-2 supplement (Thermo Fisher Scientific, cat. 17502048), 50 ng/mL human EGF (Thermo Fisher Scientific, cat. PHG0311), and 10 microM Y-27632 dihydrochloride (Tocris Bioscience, cat. 1254). The K12877-001-R-J1-PDC line was cultured in 6I media, which includes all 6C/Colon 1B media plus 10 ng/mL human FGF-10 (PeproTech, cat. 100-26), 1 ng/mL human FGF-2 (PeproTech, cat. 100-18B), 1 µM prostaglandin E2 (Tocris Bioscience, cat. 2296), […] hydrocortisone (Sigma-Aldrich, cat. H4001), and […] bovine insulin (Sigma-Aldrich, cat. I6634). The K86415-001-R-J1-PDC line was cultured in 6D media, which includes all 6C/Colon 1B media components minus the L-WRN conditioned media. The 485176-168-R4-J1-PDC was cultured in PANC media, which includes all 6C/Colon 1B media plus 100 ng/mL human FGF-10 (PeproTech, cat. 100-26), 500 nM SB-431542 (Selleckchem, cat. S1067), and 10 nM gastrin (Tocris Bioscience, cat. 3006). […]
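Further: spheroids exposed to compounds for 7 days before readout.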
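Wherever viability, T/C is given: 100% = DMSO vehicle control viability.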

`CC1(C)CCC(Nc2ncc(C(F)(F)F)c(-c3c[nH]c4c(P(C)(C)=O)c(C#N)ccc34)n2)CN1` (centres undefined) + CCn1c(-c2cccnc2C(C)OC)c2c3cc(ccc31)N1CCOC(CC(NC(=O)C(C(C)C)N(C)C(=O)C3(F)CCN(C(=O)C#CC(C)(C)N(C)C)CC3)C(=O)N3CCCC(N3)C(=O)OCC(C)(C)C2)C1 was tested, and the IC50 (second compound 0.000949 µM) was less than 0.949 nM, the IC50 (second compound 0.003 µM) was less than 0.949 nM and the IC50 (second compound 0.00949 µM) was less than 0.949 nM. It also gave an IC50 (second compound 0.03 µM) of less than 0.949 nM, an IC50 (second compound 0.0949 µM) of less than 0.949 nM and an IC50 (second compound 0.3 µM) of less than 0.949 nM. The viability, T/C (second compound 0.000949 µM, first compound 0.000949 µM) was 21%, the viability, T/C (second compound 0.000949 µM, first compound 0.003 µM) was 20.7% and the viability, T/C (second compound 0.000949 µM, first compound 0.00949 µM) was 16.3%. It also gave a viability, T/C (second compound 0.000949 µM, first compound 0.03 µM) of 23.5%, a viability, T/C (second compound 0.000949 µM, first compound 0.0949 µM) of 24.3% and a viability, T/C (second compound 0.000949 µM, first compound 0.3 µM) of 15.7%. The viability, T/C (second compound 0.003 µM, first compound 0.000949 µM) was 25.2%, the viability, T/C (second compound 0.003 µM, first compound 0.003 µM) was 19.5% and the viability, T/C (second compound 0.003 µM, first compound 0.00949 µM) was 18.2%. It also gave a viability, T/C (second compound 0.003 µM, first compound 0.03 µM) of 22.9%, a viability, T/C (second compound 0.003 µM, first compound 0.0949 µM) of 22.2% and a viability, T/C (second compound 0.003 µM, first compound 0.3 µM) of 16.6%. For the same molecule, the viability, T/C (second compound 0.00949 µM, first compound 0.000949 µM) was 21.4%, the viability, T/C (second compound 0.00949 µM, first compound 0.003 µM) was 20.2% and the viability, T/C (second compound 0.00949 µM, first compound 0.00949 µM) was 21.2%. It also gave a viability, T/C (second compound 0.00949 µM, first compound 0.03 µM) of 19.6%, a viability, T/C (second compound 0.00949 µM, first compound 0.0949 µM) of 21.2% and a viability, T/C (second compound 0.00949 µM, first compound 0.3 µM) of 21.9%. The viability, T/C (second compound 0.03 µM, first compound 0.000949 µM) was 20.4%, the viability, T/C (second compound 0.03 µM, first compound 0.003 µM) was 17% and the viability, T/C (second compound 0.03 µM, first compound 0.00949 µM) was 22.8%. It also gave a viability, T/C (second compound 0.03 µM, first compound 0.03 µM) of 21.7%, a viability, T/C (second compound 0.03 µM, first compound 0.0949 µM) of 19% and a viability, T/C (second compound 0.03 µM, first compound 0.3 µM) of 21.6%. It also gave a viability, T/C (second compound 0.0949 µM, first compound 0.000949 µM) of 19.5%, a viability, T/C (second compound 0.0949 µM, first compound 0.003 µM) of 20.3% and a viability, T/C (second compound 0.0949 µM, first compound 0.00949 µM) of 21%. It also gave a viability, T/C (second compound 0.0949 µM, first compound 0.03 µM) of 23.4%, a viability, T/C (second compound 0.0949 µM, first compound 0.0949 µM) of 19% and a viability, T/C (second compound 0.0949 µM, first compound 0.3 µM) of 23.7%. For the same molecule, the viability, T/C (second compound 0.3 µM, first compound 0.000949 µM) was 20.7%, the viability, T/C (second compound 0.3 µM, first compound 0.003 µM) was 19.9% and the viability, T/C (second compound 0.3 µM, first compound 0.00949 µM) was 25.6%. The viability, T/C (second compound 0.3 µM, first compound 0.03 µM) was 20.9%, the viability, T/C (second compound 0.3 µM, first compound 0.0949 µM) was 21.4% and the viability, T/C (second compound 0.3 µM, first compound 0.3 µM) was 25.6%.

Molecule `CCC(CC)c1cc(NC2CCC(N)C2)n2nccc2n1` (centres undefined) + CCn1c(-c2cc(N3CCN(C)CC3)cnc2C(C)OC)c2c3cc(ccc31)-c1csc(n1)CC(NC(=O)C1CC1C)C(=O)N1CCCC(N1)C(=O)OCC(C)(C)C2 has an IC50 (second compound 0.000949 µM) of less than 31.6 nM, an IC50 (second compound 0.003 µM) of less than 31.6 nM and an IC50 (second compound 0.00949 µM) of less than 31.6 nM. The IC50 (second compound 0.03 µM) was less than 31.6 nM, the IC50 (second compound 0.0949 µM) was less than 31.6 nM and the IC50 (second compound 0.3 µM) was less than 31.6 nM. The viability, T/C (second compound 0.000949 µM, first compound 0.0316 µM) was 29.4%, the viability, T/C (second compound 0.000949 µM, first compound 0.1 µM) was 28.1% and the viability, T/C (second compound 0.000949 µM, first compound 0.316 µM) was 27.6%. For the same molecule, the viability, T/C (second compound 0.000949 µM, first compound 1 µM) was 32.5%, the viability, T/C (second compound 0.000949 µM, first compound 3.16 µM) was 15% and the viability, T/C (second compound 0.000949 µM, first compound 10 µM) was 41.4%. It also gave a viability, T/C (second compound 0.003 µM, first compound 0.0316 µM) of 23.7%, a viability, T/C (second compound 0.003 µM, first compound 0.1 µM) of 21.6% and a viability, T/C (second compound 0.003 µM, first compound 0.316 µM) of 20.7%. The viability, T/C (second compound 0.003 µM, first compound 1 µM) was 26.8%, the viability, T/C (second compound 0.003 µM, first compound 3.16 µM) was 12.4% and the viability, T/C (second compound 0.003 µM, first compound 10 µM) was 39.3%. It also gave a viability, T/C (second compound 0.00949 µM, first compound 0.0316 µM) of 18%, a viability, T/C (second compound 0.00949 µM, first compound 0.1 µM) of 16.2% and a viability, T/C (second compound 0.00949 µM, first compound 0.316 µM) of 20.5%. For the same molecule, the viability, T/C (second compound 0.00949 µM, first compound 1 µM) was 24.7%, the viability, T/C (second compound 0.00949 µM, first compound 3.16 µM) was 14.5% and the viability, T/C (second compound 0.00949 µM, first compound 10 µM) was 41.5%. The viability, T/C (second compound 0.03 µM, first compound 0.0316 µM) was 14.8%, the viability, T/C (second compound 0.03 µM, first compound 0.1 µM) was 15.4% and the viability, T/C (second compound 0.03 µM, first compound 0.316 µM) was 19%. The viability, T/C (second compound 0.03 µM, first compound 1 µM) was 21.2%, the viability, T/C (second compound 0.03 µM, first compound 3.16 µM) was 19.3% and the viability, T/C (second compound 0.03 µM, first compound 10 µM) was 51%. The viability, T/C (second compound 0.0949 µM, first compound 0.0316 µM) was 14.2%, the viability, T/C (second compound 0.0949 µM, first compound 0.1 µM) was 15% and the viability, T/C (second compound 0.0949 µM, first compound 0.316 µM) was 16.5%. It also gave a viability, T/C (second compound 0.0949 µM, first compound 1 µM) of 21.4%, a viability, T/C (second compound 0.0949 µM, first compound 3.16 µM) of 18.7% and a viability, T/C (second compound 0.0949 µM, first compound 10 µM) of 50.8%. For the same molecule, the viability, T/C (second compound 0.3 µM, first compound 0.0316 µM) was 13.3%, the viability, T/C (second compound 0.3 µM, first compound 0.1 µM) was 15.2% and the viability, T/C (second compound 0.3 µM, first compound 0.316 µM) was 17.8%. The viability, T/C (second compound 0.3 µM, first compound 1 µM) was 20%, the viability, T/C (second compound 0.3 µM, first compound 3.16 µM) was 13.1% and the viability, T/C (second compound 0.3 µM, first compound 10 µM) was 49.1%.
